Laboratory results as given in the NIST ThermoML archive (doi:10.1016/j.jct.2006.09.017).

Legend:
[1] = 101.33 kPa, Liquid
[2] = xn = mol fraction of the nth substance listed; conditions: 101 kPa, Liquid

CN1CCN(C)C1=O [1,3-dimethyl-2-imidazolidinone]
[1]
Conditions | mass density [kg/m3]
283.15 K | 1064.86
298.15 K | 1051.59
313.15 K | 1038.38

CN1CCN(C)C1=O [1,3-dimethyl-2-imidazolidinone] + CCCCCCCCO
mass density [kg/m3], [2]
Conditions | x1 = 0.09996 | x1 = 0.2 | x1 = 0.3002 | x1 = 0.4001 | x1 = 0.5 | x1 = 0.599 | x1 = 0.7002 | x1 = 0.7996 | x1 = 0.8999
283.15 K | 848.3 | 865.7 | 884.37 | 904.35 | 925.89 | 948.94 | 974.48 | 1001.78 | 1031.95
298.15 K | 837.74 | 854.88 | 873.28 | 893.01 | 914.29 | 937.08 | 962.3 | 989.29 | 1019.12
313.15 K | 827.05 | 843.97 | 862.14 | 881.63 | 902.66 | 925.21 | 950.12 | 976.81 | 1006.31

CN1CCN(C)C1=O [1,3-dimethyl-2-imidazolidinone] + CCCCCCCO
mass density [kg/m3], [2]
Conditions | x1 = 0.09996 | x1 = 0.1999 | x1 = 0.3001 | x1 = 0.4 | x1 = 0.5 | x1 = 0.6001 | x1 = 0.7 | x1 = 0.8001 | x1 = 0.8992
283.15 K | 847.64 | 866.92 | 887.24 | 908.58 | 931.08 | 954.87 | 979.95 | 1006.61 | 1034.61
298.15 K | 836.89 | 855.89 | 875.96 | 897.05 | 919.28 | 942.82 | 967.68 | 994.04 | 1021.77
313.15 K | 826.03 | 844.8 | 864.62 | 885.45 | 907.49 | 930.78 | 955.41 | 981.47 | 1009.02

CN1CCN(C)C1=O [1,3-dimethyl-2-imidazolidinone] + CCCCCCO
mass density [kg/m3], [2]
Conditions | x1 = 0.1 | x1 = 0.2 | x1 = 0.3 | x1 = 0.4001 | x1 = 0.5 | x1 = 0.6001 | x1 = 0.7002 | x1 = 0.7998 | x1 = 0.9001
283.15 K | 847.11 | 868.74 | 890.96 | 913.77 | 937.21 | 961.32 | 986.12 | 1011.48 | 1037.74
298.15 K | 836.15 | 857.49 | 879.43 | 901.99 | 925.23 | 949.12 | 973.62 | 998.72 | 1024.71
313.15 K | 825.02 | 846.12 | 867.81 | 890.13 | 913.07 | 936.71 | 961.04 | 985.96 | 1011.88

CN1CCN(C)C1=O [1,3-dimethyl-2-imidazolidinone] + CCCCCO
mass density [kg/m3], [2]
Conditions | x1 = 0.1 | x1 = 0.2 | x1 = 0.3 | x1 = 0.4001 | x1 = 0.5001 | x1 = 0.6001 | x1 = 0.7 | x1 = 0.8002 | x1 = 0.9
283.15 K | 846.41 | 870.95 | 895.43 | 919.88 | 944.23 | 968.5 | 992.7 | 1016.92 | 1040.93
298.15 K | 835.16 | 859.39 | 883.62 | 907.84 | 931.97 | 956.02 | 980.01 | 1004.03 | 1027.87
313.15 K | 823.75 | 847.72 | 871.72 | 895.74 | 919.68 | 943.56 | 967.36 | 991.25 | 1014.87

CN1CCN(C)C1=O [1,3-dimethyl-2-imidazolidinone] + CCCCO
mass density [kg/m3], [2]
Conditions | x1 = 0.09992 | x1 = 0.2 | x1 = 0.3 | x1 = 0.4002 | x1 = 0.5 | x1 = 0.6 | x1 = 0.7002 | x1 = 0.7999 | x1 = 0.9001
283.15 K | 846.49 | 874.68 | 901.72 | 927.79 | 952.85 | 976.95 | 1000.25 | 1022.61 | 1044.18
298.15 K | 834.78 | 862.67 | 889.49 | 915.33 | 940.22 | 964.19 | 987.34 | 1009.57 | 1031.03
313.15 K | 822.87 | 850.54 | 877.11 | 902.78 | 927.48 | 951.32 | 974.35 | 996.45 | 1017.84

CN1CCN(C)C1=O [1,3-dimethyl-2-imidazolidinone] + CCCO
mass density [kg/m3], [2]
Conditions | x1 = 0.09998 | x1 = 0.2 | x1 = 0.2999 | x1 = 0.4001 | x1 = 0.4998 | x1 = 0.6001 | x1 = 0.7 | x1 = 0.7999 | x1 = 0.9
283.15 K | 847.83 | 880.77 | 910.83 | 938.4 | 963.7 | 987.2 | 1008.86 | 1028.91 | 1047.62
298.15 K | 835.55 | 868.25 | 898.06 | 925.54 | 950.74 | 974.16 | 995.74 | 1015.73 | 1034.43
313.15 K | 823.05 | 855.56 | 885.22 | 912.63 | 937.7 | 961.08 | 982.62 | 1002.67 | 1021.31

CN1CCN(C)C1=O [1,3-dimethyl-2-imidazolidinone] + CCO
mass density [kg/m3], [2]
Conditions | x1 = 0.09998 | x1 = 0.2 | x1 = 0.3001 | x1 = 0.3999 | x1 = 0.4996 | x1 = 0.6002 | x1 = 0.6999 | x1 = 0.8 | x1 = 0.8994
283.15 K | 846.13 | 886.41 | 920.6 | 949.96 | 975.63 | 998.13 | 1017.79 | 1035.31 | 1050.79
298.15 K | 833.1 | 873.26 | 907.41 | 936.72 | 962.36 | 984.83 | 1004.56 | 1022.19 | 1037.59
313.15 K | 819.85 | 859.85 | 893.96 | 923.29 | 948.92 | 971.48 | 991.29 | 1008.94 | 1024.41

CN1CCN(C)C1=O [1,3-dimethyl-2-imidazolidinone] + CO
mass density [kg/m3], [2]
Conditions | x1 = 0.09987 | x1 = 0.1999 | x1 = 0.2999 | x1 = 0.4 | x1 = 0.4985 | x1 = 0.6002 | x1 = 0.7001 | x1 = 0.8002 | x1 = 0.9003
283.15 K | 866.6 | 914.65 | 950.88 | 978.91 | 1000.83 | 1019.06 | 1033.62 | 1045.88 | 1056.16
298.15 K | 852.53 | 900.56 | 936.99 | 965.04 | 987.09 | 1005.48 | 1020.04 | 1032.47 | 1042.89
313.15 K | 838.25 | 886.37 | 922.85 | 951.05 | 973.2 | 991.72 | 1006.43 | 1019.04 | 1029.49

CCCCO [butan-1-ol]
[1]
Conditions | mass density [kg/m3]
283.15 K | 817.18
298.15 K | 805.79
313.15 K | 794.18

CCO [ethanol]
[1]
Conditions | mass density [kg/m3]
283.15 K | 797.88
298.15 K | 785.13
313.15 K | 772.05

CCCCCCCO [heptan-1-ol]
[1]
Conditions | mass density [kg/m3]
283.15 K | 829.27
298.15 K | 818.78
313.15 K | 808.11

CCCCCCO [hexan-1-ol]
[1]
Conditions | mass density [kg/m3]
283.15 K | 826.03
298.15 K | 815.34
313.15 K | 804.46

CO [methanol]
[1]
Conditions | mass density [kg/m3]
283.15 K | 800.62
298.15 K | 786.56
313.15 K | 772.32

CCCCCCCCO [octan-1-ol]
[1]
Conditions | mass density [kg/m3]
283.15 K | 832.06
298.15 K | 821.72
313.15 K | 811.21

CCCCCO [pentan-1-ol]
[1]
Conditions | mass density [kg/m3]
283.15 K | 821.81
298.15 K | 810.88
313.15 K | 799.71

CCCO [propan-1-ol]
[1]
Conditions | mass density [kg/m3]
283.15 K | 811.54
298.15 K | 799.59
313.15 K | 787.36
